For series [1], the target named is T1, Oxytocin receptor (Homo sapiens, UniProt P30559).
T1 sequence (P30559 whole entry): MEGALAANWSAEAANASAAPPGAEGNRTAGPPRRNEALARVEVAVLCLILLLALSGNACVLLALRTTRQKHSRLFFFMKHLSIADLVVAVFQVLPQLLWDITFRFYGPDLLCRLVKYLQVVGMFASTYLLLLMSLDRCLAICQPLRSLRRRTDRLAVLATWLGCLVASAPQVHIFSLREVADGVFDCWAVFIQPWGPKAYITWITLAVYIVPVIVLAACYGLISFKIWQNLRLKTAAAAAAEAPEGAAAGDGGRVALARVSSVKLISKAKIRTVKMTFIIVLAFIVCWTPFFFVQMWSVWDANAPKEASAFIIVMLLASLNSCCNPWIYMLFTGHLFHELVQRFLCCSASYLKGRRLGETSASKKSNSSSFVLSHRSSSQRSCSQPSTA
Kind of series: Displacement of [3H]-oxytocin from human oxytocin receptor expressed in CHO cells. In kind it is cell-based.

Series [2] deals with Vasopressin V1a receptor (Homo sapiens, UniProt P37288). Kind of series: Displacement of [3H]vasopressin from human vasopressin V1a receptor expressed in CHO cells. The class given is cell-based.
Vasopressin V1a receptor (Homo sapiens, UniProt P37288), sequence (P37288 whole entry): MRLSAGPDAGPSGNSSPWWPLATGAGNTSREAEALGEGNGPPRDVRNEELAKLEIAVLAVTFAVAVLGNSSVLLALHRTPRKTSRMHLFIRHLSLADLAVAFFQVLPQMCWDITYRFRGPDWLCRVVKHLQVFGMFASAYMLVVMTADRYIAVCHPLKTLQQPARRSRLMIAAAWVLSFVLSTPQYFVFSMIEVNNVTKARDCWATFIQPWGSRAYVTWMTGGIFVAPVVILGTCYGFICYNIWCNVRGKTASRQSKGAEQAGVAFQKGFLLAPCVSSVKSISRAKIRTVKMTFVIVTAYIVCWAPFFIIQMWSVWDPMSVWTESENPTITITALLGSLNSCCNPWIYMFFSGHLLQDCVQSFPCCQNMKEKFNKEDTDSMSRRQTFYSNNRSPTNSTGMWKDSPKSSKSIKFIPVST
Series [3] concerns the target T2, Oxytocin receptor (Rattus norvegicus, UniProt P70536).
T2 sequence (P70536 whole entry): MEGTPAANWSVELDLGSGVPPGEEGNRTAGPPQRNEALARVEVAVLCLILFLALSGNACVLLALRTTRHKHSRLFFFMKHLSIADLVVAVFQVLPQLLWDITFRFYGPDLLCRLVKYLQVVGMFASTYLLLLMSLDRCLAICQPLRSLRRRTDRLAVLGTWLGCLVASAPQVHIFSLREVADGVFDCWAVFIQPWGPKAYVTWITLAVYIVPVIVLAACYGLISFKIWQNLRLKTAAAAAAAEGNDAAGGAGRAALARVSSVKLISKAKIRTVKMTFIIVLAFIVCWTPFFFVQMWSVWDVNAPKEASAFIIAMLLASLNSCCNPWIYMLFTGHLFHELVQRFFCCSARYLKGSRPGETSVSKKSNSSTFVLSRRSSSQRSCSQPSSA
Kind of series: Displacement of [3H]-oxytocin from rat oxytocin receptor expressed in CHO cells. In kind it is cell-based.

Series [4] deals with Vasopressin V2 receptor (Homo sapiens, UniProt P30518). Kind of series: Displacement of [3H]vasopressin from human vasopressin V2 receptor expressed in CHO cells. In kind it is cell-based.
Vasopressin V2 receptor (Homo sapiens, UniProt P30518), sequence (P30518 whole entry): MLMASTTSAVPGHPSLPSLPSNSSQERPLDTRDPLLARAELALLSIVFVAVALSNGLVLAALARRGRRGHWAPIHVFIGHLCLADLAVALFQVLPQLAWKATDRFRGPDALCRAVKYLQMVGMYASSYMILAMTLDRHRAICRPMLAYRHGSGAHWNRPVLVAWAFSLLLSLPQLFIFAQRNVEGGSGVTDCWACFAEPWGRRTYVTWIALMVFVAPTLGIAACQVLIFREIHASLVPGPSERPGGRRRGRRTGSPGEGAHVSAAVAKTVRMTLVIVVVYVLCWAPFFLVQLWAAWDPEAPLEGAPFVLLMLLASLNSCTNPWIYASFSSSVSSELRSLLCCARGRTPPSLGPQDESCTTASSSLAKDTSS
In series [5] the target is T2, Oxytocin receptor. The series can be described thus: Antagonist activity at oxytocin receptor in rat uterine strips assessed as inhibition of oxytocin-induced contraction. In kind it is functional. To be noted: read-out: pA2 (converted).
The target of series [6] is Vasopressin V1a receptor (Rattus norvegicus, UniProt P30560). Kind of series: Displacement of [3H]vasopressin from rat vasopressin V1a receptor in liver tissue.
Vasopressin V1a receptor (Rattus norvegicus, UniProt P30560), sequence (P30560 whole entry): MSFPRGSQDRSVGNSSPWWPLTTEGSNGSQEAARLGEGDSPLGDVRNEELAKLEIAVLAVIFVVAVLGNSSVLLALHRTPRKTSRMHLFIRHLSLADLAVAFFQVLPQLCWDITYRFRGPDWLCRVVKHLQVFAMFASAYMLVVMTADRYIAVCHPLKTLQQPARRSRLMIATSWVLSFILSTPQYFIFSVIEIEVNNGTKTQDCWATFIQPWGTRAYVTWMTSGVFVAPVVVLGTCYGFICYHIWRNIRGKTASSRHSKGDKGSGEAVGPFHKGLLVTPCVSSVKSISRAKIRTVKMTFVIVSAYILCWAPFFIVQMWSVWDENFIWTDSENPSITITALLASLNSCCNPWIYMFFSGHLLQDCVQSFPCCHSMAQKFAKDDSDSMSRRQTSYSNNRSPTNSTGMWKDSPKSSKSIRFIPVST
Series [7] deals with Vasopressin V2 receptor (Rattus norvegicus, UniProt Q00788). Kind of series: Displacement of [3H]vasopressin from rat vasopressin V2 receptor in kidney tissue.
Vasopressin V2 receptor (Rattus norvegicus, UniProt Q00788), sequence (Q00788 whole entry): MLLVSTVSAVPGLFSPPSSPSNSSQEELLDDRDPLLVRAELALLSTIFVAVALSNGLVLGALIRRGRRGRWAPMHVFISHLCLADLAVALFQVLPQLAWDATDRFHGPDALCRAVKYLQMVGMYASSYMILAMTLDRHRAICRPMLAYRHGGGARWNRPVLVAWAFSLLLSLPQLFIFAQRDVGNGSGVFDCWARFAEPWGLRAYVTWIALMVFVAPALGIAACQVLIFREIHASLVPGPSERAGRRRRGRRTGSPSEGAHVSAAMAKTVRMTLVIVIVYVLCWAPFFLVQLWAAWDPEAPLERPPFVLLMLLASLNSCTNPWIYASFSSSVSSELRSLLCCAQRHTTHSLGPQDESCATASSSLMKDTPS
For series [8], the system named is Homo sapiens. The series can be described thus: Toxicity in human assessed as tolerated dosed. In kind it is organism-based. To be noted: in vivo.
Series [9] in a line: Half life in human. The class given is ADME, organism-based. Particulars: in vivo.
The nature of series [10]: Clearance in human. The class given is ADME, organism-based. To be noted: in vivo.
A short description of series [11]: Clearance in dog. In kind it is ADME, organism-based, Canis lupus familiaris. To be noted: in vivo.
Series [12] is described as follows: Solubility of the compound at pH 7.4. To be noted: buffer. The class given is physicochemical.
The nature of series [13]: Oral bioavailability in human. In kind it is ADME, organism-based. Particulars: in vivo.
For series [14], the species on record is Homo sapiens. Kind of series: Selectivity ratio of Ki for human oxytocin receptor Ki for human vasopressin V1a receptor.
The species entered for series [15] is Homo sapiens. The series can be described thus: Selectivity ratio of Ki for human oxytocin receptor Ki for human vasopressin V2 receptor.
A further series deals with T3, Vasopressin V1b receptor (Homo sapiens, UniProt P47901).
T3 sequence (P47901 whole entry): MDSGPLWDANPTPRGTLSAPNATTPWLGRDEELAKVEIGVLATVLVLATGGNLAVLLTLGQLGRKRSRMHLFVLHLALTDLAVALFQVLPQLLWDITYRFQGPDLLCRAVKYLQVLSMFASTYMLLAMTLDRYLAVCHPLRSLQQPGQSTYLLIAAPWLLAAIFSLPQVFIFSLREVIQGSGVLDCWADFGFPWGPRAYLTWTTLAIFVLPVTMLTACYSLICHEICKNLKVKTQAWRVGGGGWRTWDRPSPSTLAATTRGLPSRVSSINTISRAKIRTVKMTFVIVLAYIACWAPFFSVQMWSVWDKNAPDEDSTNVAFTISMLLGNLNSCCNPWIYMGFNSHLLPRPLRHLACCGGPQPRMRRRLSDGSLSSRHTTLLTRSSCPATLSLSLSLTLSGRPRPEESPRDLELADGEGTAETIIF
Kind of series: Displacement of [3H]vasopressin from human vasopressin V1b receptor expressed in CHO cells. The class given is cell-based.

Series [16] is described as follows: Clearance in rat. Particulars: in vivo. In kind it is ADME, organism-based.
Series [17] can be described thus: Oral bioavailability in rat. The class given is ADME, organism-based. Particulars: in vivo.
The test system of series [18] is Rattus norvegicus. The series can be described thus: Inhibition of oxytocin-induced uterine contraction in po dosed rat. In kind it is functional.
The nature of series [19]: Protein binding in human serum. Particulars: read-out: PB (converted). The class given is ADME, cell-free.
Series [20] relates to Rattus norvegicus. The series can be described thus: Inhibition of oxytocin-induced uterine contraction in non-pregnant rat at 30 mg/kg, po. In kind it is functional.
Series [21] deals with Rattus norvegicus. Kind of series: Inhibition of oxytocin-induced uterine contraction in pregnant rat at 60 mg/kg, po. The class given is functional.

In brackets after ≈: the same amount, converted by molar mass. Where only a bound is given, the exact number is not on record here.

Molecule `CCN(Cc1cccnc1)C(=O)c1ccc(Cl)c([C@]2(C)C(=O)N(Cc3ccc(OC)cc3OC)c3ccc(Cl)cc32)c1` displayed an IC50 on Oxytocin receptor [1] of 0.5 nM. Also, the Ki on Vasopressin V1a receptor [2] is 143 nM; at Oxytocin receptor [3] it was 1.6 nM; on Vasopressin V2 receptor [4], over 1000 nM; at Vasopressin V1a receptor [6], 99 nM; at Vasopressin V2 receptor [7], over 1000 nM. The Kb on Oxytocin receptor [5] is 3.39 nM.

Regarding `COCc1nnc(N2CC(Oc3ccc(F)cc3Cl)C2)n1-c1ccc(OC)nc1`, the Activity in the series on Homo sapiens [8] was 0.3 mg. Besides, the half-life in series [9] is 12 h. The clearance in series [10] was over 8 mL/min/kg; in [11], 8 mL/min/kg; in [16] it was 36 mL/min/kg. This molecule also had a solubility in [12] of 59 µg/mL (≈ 141 µM). In series [13], this molecule gave a bioavailability of 80%. Further, the Ratio Ki in the series filed under Homo sapiens [14] amounted to 118; in the series listed under Homo sapiens [15], 1050. The same molecule registered a Ki on Vasopressin V1b receptor of over 10000 nM.

The molecule `CO/N=C1/C[C@@H](CO)N(C(=O)c2ccc(-c3ccccc3C)cc2)C1` [NOLASIBAN] yielded a bioavailability in [17] of 55%. The figures for the Ki on Vasopressin V1a receptor [2] and at Oxytocin receptor [3] were 330 nM and 210 nM, respectively. For the same molecule, it took a dose of 30 mg/kg to reach the 50% effect level in the series on Rattus norvegicus [18] (ED50). For the same molecule, the fraction unbound in series [19] is 0.29. The same molecule showed an inhibition in vivo at 30 mg/kg in the series with Rattus norvegicus [20] of 51%. In the series on Rattus norvegicus [21], this molecule came in with an inhibition in vivo at 60 mg/kg of 40%.

The record behind these values is ChEMBL document CHEMBL1250454, “Oral oxytocin antagonists” (J Med Chem, 2010).
